Tested on: T1, rGILCC1 laccase (GlLCC1)
T1 construct: previously optimized synthetic gene in pGAPZalphaA (pGAPZαA-LacGluc-Stop, also pGAPZαA-GlucPost-Stop, clone 1), secreted by Pichia pastoris X33; concentrated culture supernatant (10 kDa membrane), not purified
Experiment: spectrophotometric ABTS oxidation at […] nm, Hanes-Woolf
Type: biochemical, Ganoderma lucidum
Settings: concentrated culture supernatant, not pure enzyme; 600 mM sodium acetate buffer, pH 4.5, 25°C; read-out: apparent Km

CCn1c(=NN=c2sc3cc(S(=O)(=O)O)ccc3n2CC)sc2cc(S(=O)(=O)O)ccc21 [ABTS, 2,20-azino-bis(3-ethylbenzothiazoline-6-sulphonic acid)]
Km: 53.6 µM

Source: PMC5379127, “Plackett-Burman Design for rGILCC1 Laccase Activity Enhancement in Pichia pastoris: Concentrated Enzyme Kinetic Characterization” (Enzyme Research, 2017)
